Reference: US20210299176A1, “COMPOSITIONS AND METHODS FOR TREATING CANCER AND AUTOIMMUNE DISEASES” (CEDARS-SINAI MEDICAL CENTER, priority 2018, published 2021)

Assays:
B16 melanoma = B16 melanoma implantation in C57 BL mice, treatment with GITR agonist; assay type: in vivo; conditions: intraperitoneal 30 mg/kg twice per week vs DMSO control; p=0.0333, log rank
Experimental: After implantation of B16 melanoma, C57 BL mice underwent treatment with 11702 GITR agonist or DMSO control. (A) Animals lived longer after GITR agonist intraperitoneal 30 mg/kg treatment twice per week (p=0.0333, log rank). (B) Tumor volume was inhibited in 11702 treated animals (p<0.05, Anova).
After implantation of B16 melanoma, C57 BL mice underwent treatment with 11702 GITR agonist or DMSO control. […] (B) Tumor volume was inhibited in 11702 treated animals (p<0.05, Anova).

[1] = system: CD4+CD25- cells (T effector cells); experiment: T cell suppression assay (CFSE proliferation of T effector cells, FACS); assay type: cell-based, human; conditions: for inhibition (decrease) of T cell proliferation: T effector without T-reg
Source text: FIGS. 1A-1B show the results of where PBMC was isolated (Ficoll, GE Healthcare) from the WBC cone collected from healthy platelet donor. Cells were washed and passed through 40 um cell strainer before being stained with T cell surface antibodies. Then cells were put on cell sorter (BD FACSARIA III). Specific cell populations were collected as follows: CD4^+CD25^− cells (T effector cells), CD4^+CD25^+CD45RA^+CD127^− cells (T regulatory cells) and CD3^− cells (serve as Antigen Presenting Cells, APC). T effector cells were labeled with CellTrace CFSE (Invitrogen), heavily washed before cell number counting. Effector cells and T-regs were then mixed together at 1:1 ratio in culture media (RPMI 1640, 10% FBS, Pen-Strep and 1% NEAA) which enhanced with anti-CD3 (3 ug/ml) anti-CD28 (2 ug/ml) antibodies. APCs were treated with Mitomycin (50 ug/ml) for 30 minutes at 37° C., 5% CO2 incubator, then added to culture mix (APC:T-eff 2:1) as a proliferation co-stimulator. Cell mixture was incubated at 37° C., 5% CO2 for 6 days before being re-stained with T cell surface markers (CD4, CD25) and sent for FACS analysis. (A) T-eff fully stimulated; (B) T-eff fully stimulated+T-reg (1:1).
PBMC was isolated and specific human T cell populations were collected as follows: CD4^+CD25^− cells (T effector cells), CD4^+CD25^+CD45RA^+CD127^− cells (T regulatory cells) and CD3^− cells (serve as Antigen Presenting Cells, APC). T effector cells were labeled with CellTrace CFSE and effector cells and T-regs were then mixed together at 1:1 ratio in culture media (RPMI 1640, 10% FBS, Pen-Strep and 1% NEAA) which enhanced with anti-CD3 (3 ug/ml) anti-CD28 (2 ug/ml) antibodies. APCs were treated with Mitomycin (50 ug/ml) for 30 minutes at 37° C., 5% CO2 incubator, then added to culture mix (APC:T-eff 2:1) as a proliferation co-stimulator, incubated, and sent for FACS analysis. Molecule 11702 agonist and 11704 antagonist were added to treat groups respectively at a concentration gradient of 5 uM, 25 uM and 50 uM.
PBMC was isolated (Ficoll, GE Healthcare) from the WBC cone collected from healthy platelet donor. Cells were washed and passed through 40 um cell strainer before being stained with T cell surface antibodies. Then cells were put on cell sorter (BD FACSARIA III). Specific cell populations were collected as follows: CD4^+CD25^− cells (T effector cells), CD4^+CD25^+CD45RA^+CD127^− cells (T regulatory cells) and CD3^− cells (serve as Antigen Presenting Cells, APC). T effector cells were labeled with CellTrace CFSE (Invitrogen), heavily washed before cell number counting. Effector cells and T-regs were then mixed together at 1:1 ratio in culture media (RPMI 1640, 10% FBS, Pen-Strep and 1% NEAA) which enhanced with anti-CD3 (3 ug/ml) anti-CD28 (2 ug/ml) antibodies. […]

SMILES	survival of animals (B16 melanoma)	inhibition at 50 µM ([1]; Homo sapiens, T-cell, T effector + T-reg (1:1), 50 uM, read-out: inhibition (decrease) of proliferation compared to base line)	effect on T effector cell population ([1]; T cell suppression assay, with and without Tregs, more effective in the presence of Tregs)	inhibition (decrease) of T cell proliferation ([1]; 5 uM)	inhibition (decrease) of T cell proliferation ([1]; 25 um)
OCC1OC(Nc2ccc(-c3ccc(NC4CC(O)C(CO)O4)cc3)cc2)CC1O (centres unmarked) [RMGL171102]	lived longer	–	–	–	–
O=C(CCCCC(=O)NN=Cc1cccc(O)c1)NN=Cc1cccc(O)c1 [RMGL171104]	–	55.9%	dose dependent retraction of T effector cells	no significant effect	no significant effect
